The results in this text go back to ChEMBL document CHEMBL5033997, “Macrolide Inspired Macrocycles as Modulators of the IL-17A/IL-17RA Interaction” (J Med Chem, 2021).

The structures appear in SMILES notation.

This test is described as follows: Inhibition of recombinant human IL-17A/IL-17AR protein-protein interaction using TMB substrate compound added on IL17A precoated plate and followed by IL-17AR addition by ELISA. (In an ELISA, binding on a coated surface is turned into a signal by an enzyme label.)
A word on the IC50: it is the concentration needed to halve the response being measured. Turning to `CO[C@]1(C)C[C@H](O[C@H]2[C@H](C)[C@@H](O[C@@H]3O[C@H](C)C[C@H](N(C)C)[C@H]3O)[C@](C)(O)C[C@@H](C)CN(C)C(=O)C[C@@H](Cc3ccc(NC(=O)[C@H](Cc4ccccc4Cl)NC(=O)NCc4cccc(F)c4)cc3)NC(=O)[C@H](C(C)C)NC(=O)[C@@H]2C)O[C@@H](C)[C@@H]1O`, the IC50 was 48 nM.
In the case of `CO[C@]1(C)C[C@H](O[C@H]2[C@H](C)[C@@H](O[C@@H]3O[C@H](C)C[C@H](N(C)C)[C@H]3O)[C@](C)(O)C[C@@H](C)CN(C)C(=O)C[C@@H](Cc3ccc(NC(=O)[C@H](Cc4ccccc4Cl)NC(=O)Cc4ccccc4)cc3)NC(=O)[C@H](C(C)(C)C)NC(=O)[C@@H]2C)O[C@@H](C)[C@@H]1O`, the IC50 amounted to 1600 nM.
In the case of `CO[C@]1(C)C[C@H](O[C@H]2[C@H](C)[C@@H](O[C@@H]3O[C@H](C)C[C@H](N(C)C)[C@H]3O)[C@](C)(O)C[C@@H](C)CN(C)C(=O)C[C@@H](Cc3ccc(NC(=O)[C@H](Cc4ccccc4Cl)NC(=O)Cc4ccccc4)cc3)NC(=O)C[C@H](C(C)C)NC(=O)[C@@H]2C)O[C@@H](C)[C@@H]1O` it was greater than 30000 nM; in that of `CO[C@]1(C)C[C@H](O[C@H]2[C@H](C)[C@@H](O[C@@H]3O[C@H](C)C[C@H](N(C)C)[C@H]3O)[C@](C)(O)C[C@@H](C)CN(C)C(=O)C[C@@H](Cc3ccc(NC(=O)[C@H](Cc4ccccc4Cl)NC(=O)c4ccccc4)cc3)NC(=O)[C@H](C(C)C)NC(=O)[C@@H]2C)O[C@@H](C)[C@@H]1O`, 320 nM; in that of `CO[C@]1(C)C[C@H](O[C@H]2[C@H](C)[C@@H](O[C@@H]3O[C@H](C)C[C@H](N(C)C)[C@H]3O)[C@](C)(O)C[C@@H](C)CN(C)C(=O)C[C@@H](Cc3ccc(NC(=O)[C@H](Cc4ccccc4Cl)NC(=O)Cc4ccc(F)cc4)cc3)NC(=O)[C@H](C(C)C)NC(=O)[C@@H]2C)O[C@@H](C)[C@@H]1O`, 573 nM.
Then `CO[C@]1(C)C[C@H](O[C@H]2[C@H](C)[C@@H](O[C@@H]3O[C@H](C)C[C@H](N(C)C)[C@H]3O)[C@](C)(O)C[C@@H](C)CN(C)C(=O)C[C@@H](Cc3ccc(NC(=O)[C@H](Cc4ccc(Cl)cc4Cl)NC(=O)Cc4ccccc4)cc3)NC(=O)[C@H](C(C)C)NC(=O)[C@@H]2C)O[C@@H](C)[C@@H]1O`, with 211 nM.
In the case of `CO[C@]1(C)C[C@H](O[C@H]2[C@H](C)[C@@H](O[C@@H]3O[C@H](C)C[C@H](N(C)C)[C@H]3O)[C@](C)(O)C[C@@H](C)CN(C)C(=O)[C@H](Cc3ccc(NC(=O)[C@H](Cc4ccccc4Cl)NC(=O)Cc4ccccc4)cc3)NC(=O)[C@H](C(C)C)NC(=O)[C@@H]2C)O[C@@H](C)[C@@H]1O` it was 15900 nM; in that of `CO[C@]1(C)C[C@H](O[C@H]2[C@H](C)[C@@H](O[C@@H]3O[C@H](C)C[C@H](N(C)C)[C@H]3O)[C@](C)(O)C[C@@H](C)CN(C)C(=O)C[C@H](Cc3ccc(NC(=O)[C@H](Cc4ccccc4Cl)NC(=O)Cc4ccccc4)cc3)NC(=O)[C@H](C(C)C)NC(=O)[C@@H]2C)O[C@@H](C)[C@@H]1O`, greater than 30000 nM.
For the compound `CO[C@]1(C)C[C@H](O[C@H]2[C@H](C)[C@@H](O[C@@H]3O[C@H](C)C[C@H](N(C)C)[C@H]3O)[C@](C)(O)C[C@@H](C)CN(C)C(=O)C[C@@H](Cc3ccc(NC(=O)[C@H](Cc4ccccc4C)NC(=O)Cc4ccccc4)cc3)NC(=O)[C@H](C(C)C)NC(=O)[C@@H]2C)O[C@@H](C)[C@@H]1O`, the IC50 was 488 nM.
For the compound `CO[C@]1(C)C[C@H](O[C@H]2[C@H](C)[C@@H](O[C@@H]3O[C@H](C)C[C@H](N(C)C)[C@H]3O)[C@](C)(O)C[C@@H](C)CN(C)C(=O)[C@@H](C(C)C)NC(=O)C[C@H](Cc3ccc(NC(=O)[C@H](Cc4ccccc4Cl)NC(=O)Cc4ccccc4)cc3)NC(=O)[C@@H]2C)O[C@@H](C)[C@@H]1O`, the IC50 was 256 nM.
